Results from patent US20190284192A1, “NITROGENOUS MACROCYCLIC COMPOUND, PREPARATION METHOD THEREFOR, PHARMACEUTICAL COMPOSITION AND APPLICATION THEREOF” (LUOXIN PHARMACEUTICAL (SHANGHAI) CO., LTD., priority 2016, published 2019).
Like-named read-outs stand apart in the source and are kept apart here.

Legend:
MV-4-11 cells = assay: Inhibitory effect on MV-4-11 cells (CellTiter-Glo); assay type: cell-based; conditions: Homo sapiens, read-out: MV-4-11
BRD4 (BD2) = molecular target: T1, BRD4 (BD2) (Homo sapiens, UniProt O60885); assay: BRD4 (BD2) bromodomain binding, HTRF; conditions: 2 h incubation at r.t.
T1 construct: Each member comprises two tandem bromodomains (BD1 and BD2) for recognizing the acetylated lysine residues

BRD4 (BD1) = molecular target: T2, BRD4 (BD1) (Homo sapiens, UniProt O60885); assay: BRD4 (BD1) bromodomain binding, HTRF; conditions: 2 h incubation at r.t.
T2 construct: Each member comprises two tandem bromodomains (BD1 and BD2) for recognizing the acetylated lysine residues

[1] = MV4-11, 72 hours, CellTiter-Glo

SMILES | IC50 (MV-4-11 cells; [1]) [nM] | IC50 (BRD4 (BD2)) [nM] | IC50 (BRD4 (BD1)) [nM] | IC50 (MV-4-11 cells; MV4-11, 72 h) [nM]
CC(C)NC(=O)C[C@@H]1N=C(c2ccc(Cl)cc2)c2ccccc2-c2cn(C)c(=O)cc21 [Compound 4032, (S)-2-(7-(4-chlorophenyl)-2-methyl-3-oxo-3,5-dihydro-2H-benzo[c]pyrido[3,4-e]azepin-5-yl)-N-isopropylacetamide] | 6 | 2 | 3 | –
CCS(=O)(=O)Cc1ccc2c(c1)-c1cn(C)c(=O)cc1[C@@H](C)N=C2c1ccc(F)cc1 [Compound 4033, (R)-10-((ethylsulfone)methyl)-7-(4-fluorophenyl)-2,5-dimethyl-2,5-dihydro-3H-benzo[c]pyrido[3,4-e]azepin-3-ketone] | 985 | 144 | 341 | –
CCNC(=O)C[C@@H]1N=C(c2ccc(Cl)cc2)c2cc(F)ccc2-c2cn(C)c(=O)cc21 [Compound 4034, (S)-2-(7-(4-chlorophenyl)-9-fluoro-2-methyl-3-oxo-3,5-dihydro-2H-benzo[c]pyrido[3,4-e]azepin-5-yl)N-ethyl acetamide] | 15 | 1 | 4 | –
CCS(=O)(=O)Cc1ccc2c(c1)-c1cn(C)c(=O)cc1[C@H](C)N=C2c1ccc(Cl)cc1 [Compound 4037, (S)-10-((ethylsulfonyl)methyl)-7-(4-chlorophenyl)-2,5-dimethyl-2,5-dihydro-3H-benzo[c]pyrido[3,4-e]azepin-3-ketone] | 6 | 1 | 2 | –
CCS(=O)(=O)Cc1ccc2c(c1)-c1cn(C)c(=O)cc1[C@H](C(F)(F)F)N=C2c1ccc(F)cc1 [Compound 4040, (R)-10-((ethylsulfonyl)methyl)-7-(4-flurophenyl)-2-methyl-5-(trifluoromethyl)-2,5-dihydro-3H-benzo[c]pyrido[3,4-e]azepin-3-ketone] | 43 | 2 | 5 | –
CCS(=O)(=O)Cc1ccc2c(c1)-c1cn(C)c(=O)cc1[C@H](C1CC1)N=C2c1ccc(F)cc1 [Compound 4042, (S)-5-cyclopropyl-10-((ethylsulfonyl)methyl)-7-(4-flurophenyl)-2-methyl-2,5-dihydro-3H-benzo[c]pyrido[3,4-e]azepin-3-ketone] | 7 | 1 | 1 | –
C[C@@H]1N=C(c2ccc(F)cc2)c2ccc(CS(=O)(=O)C(F)(F)F)cc2-c2cn(C)c(=O)cc21 [Compound 4043, (S)-7-(4-flurophenyl)-2,5-dimethyl-10-((trifluoromethylsulphone)methyl)-2,5-dihydro-3H-benzo[c]pyrido[3,4-e]azepin-3-ketone] | 8 | 2 | 1 | –
CC(C)S(=O)(=O)Cc1ccc2c(c1)-c1cn(C)c(=O)cc1[C@H](C)N=C2c1ccc(F)cc1 [Compound 4044, (S)-10-((isopropylsulfone)methyl)-7-(4-flurophenyl)-2,5-dimethyl-2,5-dihydro-3H-benzo[c]pyrido[3,4-e]azepin 3-ketone] | 7 | 1 | 1 | –
C[C@@H]1N=C(c2ccc(F)cc2)c2ccc(CS(=O)(=O)C3CC3)cc2-c2cn(C)c(=O)cc21 [Compound 4045, (S)-7-(4-flurophenyl)-2,5-dimethyl-10-((cyclopropylsulfone)methyl)-2,5-dihydro-3H-benzo[c]pyrido[3,4-e]azepin-3-ketone] | 8 | 1 | 1 | –
CCS(=O)(=O)Cc1ccc2c(c1)-c1cn(C)c(=O)cc1[C@H](C)N=C2c1ccc(F)cc1F [Compound 4046] | 4 | 1 | 1 | –
CC[C@@H]1N=C(c2ccc(Cl)cc2)c2ccc(CS(=O)(=O)CC)cc2-c2cn(C)c(=O)cc21 [Compound 4047, (S)-5-ethyl-10-((ethylsulfonyl)methyl)-7-(4-chlorophenyl)-2-methyl-2,5-dihydro-3H-benzo[c]pyrido[3,4-e]azepin-3-ketone] | 2 | 1 | 0.4 | –
CC[S+]([O-])Cc1ccc2c(c1)-c1cn(C)c(=O)cc1[C@H](C)N=C2c1ccc(F)cc1 (stereo partly drawn) [Compound 4048, (5S)-10-((ethylsulfoxide)methyl)-7-(4-flurophenyl)-2,5-dimethyl-2,5-dihydro-3H-benzo[c]pyrido[3,4-e]azepin-3-ketone] | 28 | 2 | 2 | –
CCS(=O)(=O)Nc1ccc2c(c1)-c1cn(C)c(=O)cc1[C@H](C)N=C2c1ccc(F)cc1 [Compound 4049, (S)—N-(7-(4-flurophenyl)-2,5-dimethyl-3-oxo-3,5-dihydro-2H-benzo[c]pyrido[3,4-e]azepin-10-yl)ethylsulfonamide] | 1 | 1 | 2 | –
CCNC(=O)Nc1ccc2c(c1)-c1cn(C)c(=O)cc1[C@H](C)N=C2c1ccc(F)cc1 [Compound 4051, (S)-1-ethyl-3-(7-(4-flurophenyl)-2,5-dimethyl-3-oxo-3,5-dihydro-2H-benzo[c]pyrido[3,4-e]azepin-10-yl)urea] | 42 | 3 | 5 | –
CCNS(=O)(=O)c1ccc2c(c1)-c1cn(C)c(=O)cc1[C@H](C)N=C2c1ccc(F)cc1 [Compound 4052, (S)—N-ethyl-7-(4-flurophenyl)-2,5-dimethyl-3-oxo-3,5-dihydro-2H-benzo[c]pyrido[3,4-e]azepin-10-sulfamide] | 55 | 2 | 6 | –
CCS(=O)(=O)Cc1ccc2c(c1)-c1cn(C)c(=O)cc1[C@H](C)N=C2c1ccc(OC)cc1 [Compound 4053, (S)-10-((ethylsulfonyl)methyl)-7-(4-methoxylphenyl)-2,5-dimethyl-2,5-dihydro-3H-benzo[c]pyrido[3,4-e]azepin-3-ketone] | 7 | 1 | 2 | –
CCS(=O)(=O)Cc1ccc2c(c1)-c1cn(C)c(=O)cc1[C@H](C)N=C2c1ccc(F)c(OC)c1 [Compound 4054, (S)-10-((ethylsulfonyl)methyl)-7-(4-fluoro-3-methoxylphenyl)-2,5-dimethyl-2,5-dihydro-3H-benzo[c]pyrido[3,4-e]azepin-3-ketone] | 9 | 1 | 2 | –
CCS(=O)(=O)Nc1cc2c(cc1F)C(c1ccc(F)cc1)=N[C@@H](C)c1cc(=O)n(C)cc1-2 [Compound 4055, (S)—N-(9-fluoro-7-(4-flurophenyl)-2,5-dimethyl-3-oxo-3,5-dihydro-2H-benzo[c]pyrido[3,4-e]azepin-10-yl)ethylsulfonamide] | 1 | 1 | 1 | –
CCNC(=O)C[C@@H]1N=C(c2ccc(F)cc2)c2ccc(CS(=O)(=O)CC)cc2-c2cn(C)c(=O)cc21 [Compound 4056, (S)—N-ethyl-2-(10-((ethylsulfonyl)methyl)-7-(4-flurophenyl)-2-methyl-3-oxo-3,5-dihydro-2H-benzo[c]pyrido[3,4-e]azepin-5-yl)acetamide] | 32 | 1 | 1 | –
CCS(=O)(=O)Cc1cc2c(cc1OC)C(c1ccc(F)cc1)=N[C@@H](C)c1cc(=O)n(C)cc1-2 [Compound 4057, (S)-10-((ethylsulfonyl)methyl)-7-(4-flurophenyl)-9-methoxyl-2,5-dimethyl-2,5-dihydro-3H-benzo[c]pyrido[3,4-e]azepin-3-ketone] | 4 | 1 | 2 | –
CCS(=O)(=O)Nc1cc2c(cc1Cl)C(c1ccc(F)cc1)=N[C@@H](C)c1cc(=O)n(C)cc1-2 [Compound 4058] | – | 1 | 1 | 1
C[C@@H]1N=C(c2ccc(F)cc2)c2ccc(CS(C)(=O)=O)cc2-c2cn(C)c(=O)cc21 [Compound 4059, (S)-7-(4-flurophenyl)-2,5-dimethyl-10-((dimethylfulfone)methyl)-2,5-dihydro-3H-benzo[c]pyrido[3,4-e]azepin-3-ketone] | 7 | 1 | 2 | –
CCS(=O)(=O)Cc1ccc2c(c1)-c1cn(C)c(=O)cc1[C@H](C(C)C)N=C2c1ccc(F)cc1 [Compound 4060, (S)-10-((ethylsulfonyl)methyl)-7-(4-flurophenyl)-5-isopropyl-2-methyl-2,5-dihydro-3H-benzo[c]pyrido[3,4-e]azepin-3-ketone] | 19 | 1 | 2 | –
CCS(=O)(=O)Cc1ccc2c(c1)-c1cn(C)c(=O)cc1[C@H](C)N=C2c1ccc(O)cc1 [Compound 4061, (S)-10-((ethylsulfonyl)methyl)-7-(4-hydroxylphenyl)-2,5-dimethyl-2,5-dihydro-3H-benzo[c]pyrido[3,4-e]azepin-3-ketone] | 11 | 1 | 2 | –
CCS(=O)(=O)Nc1cc2c(cc1F)C(c1ccc(Cl)cc1)=N[C@@H](C)c1cc(=O)n(C)cc1-2 [Compound 4062, (S)—N-(7-(4-chlorophenyl)-9-fluoro-2,5-dimethyl-3-oxo-3,5-dihydro-2H-benzo[c]pyrido[3,4-e]azepin-10-yl)ethylsulfonamide] | 1 | 1 | 1 | –
CCS(=O)(=O)Cc1cc2c(cc1O)C(c1ccc(F)cc1)=N[C@@H](C)c1cc(=O)n(C)cc1-2 [Compound 4063, (S)-10-((ethylsulfonyl)methyl)-7-(4-flurophenyl)-9-hydroxyl-2,5-dimethyl-2,5-dihydro-3H-benzo[c]pyrido[3,4-e]azepin-3-ketone] | 3 | 1 | 1 | –
CCS(=O)(=O)Cc1ccc2c(c1)-c1cn(C)c(=O)cc1[C@H](C)N=C2c1ccc(F)c(O)c1 [Compound 4064, (S)-10-((ethylsulfonyl)methyl)-7-(4-fluoro-3-hydroxylphenyl)-2,5-dimethyl-2,5-dihydro-3H-benzo[c]pyrido[3,4-e]azepin-3-ketone] | 8 | 1 | 2 | –
